Patent publication US4559323A, “A41030 Antibiotics” (Eli Lilly and Company, priority 1984, dated 1985)
Converted amounts (≈) assume the structure as drawn.

What was measured:
Citrobacter freundii = details: Table 17; 24 hours; Citrobacter freundii CF17
Source text: (§1) The agar-dilution procedure described by the International Collaborative study (ICS) group was used to determine the minimum inhibitory concentrations (MIC's).

Enterobacter cloacae = test: Agar-dilution MIC; type: cell-based; details: Table 17, 24 hours
Shigella flexneri = details: Table 11; Shigella flexneri SH-4
Source text: as §1

Question: For `N[C@H]1C(=O)N[C@@H]2Cc3ccc(c(Cl)c3)Oc3cc4cc(c3O)Oc3ccc(cc3Cl)[C@@H](O)[C@@H]3NC(=O)C(NC(=O)[C@@H]4NC(=O)[C@@H](NC2=O)c2cc(O)cc(c2)Oc2cc1ccc2O)c1ccc(O)c(c1)-c1c(O)cc(O)cc1[C@@H](C(=O)O)NC3=O` [A41030 factor B], which MIC (Citrobacter freundii) is on record?
Answer: 128 µg/mL (≈ 107 µM)

Question: What about the MIC (Enterobacter cloacae; Enterobacter cloacae 265A) of the same compound?
Answer: 128 µg/mL (≈ 107 µM)

Question: And the MIC (Enterobacter cloacae; Enterobacter cloacae EB5)?
Answer: 128 µg/mL (≈ 107 µM)

Question: `NC1C(=O)NC2Cc3ccc(c(Cl)c3)Oc3cc4cc(c3O)Oc3ccc(cc3Cl)C(O)C3NC(=O)C(NC(=O)C4NC(=O)C(NC2=O)c2cc(O)cc(c2)Oc2cc1ccc2O)c1cc(Cl)c(O)c(c1)-c1c(O)cc(O)cc1C(C(=O)O)NC3=O` (stereo not shown) [A41030 factor A] was tested. Which MIC (Shigella flexneri) did it give?
Answer: 64 µg/mL (≈ 51.9 µM)
